In patent publication US6569883B1, “Medicaments” (Glaxo Group Limited, priority 1985, dated 2003):

How the values were obtained:
Format in all cases: in vivo
guinea-pigs = assay: Gastric emptying in guinea-pigs (passage of barium sulphate spheres, X-ray location); conditions: guinea pig
Description: Test compound: 1,2,3,9-tetrahydro-9-methyl-3-[(2-methyl-1H-imidazol-1-yl)methyl]-4H-carbazol-4-one hydrochloride dihydrate. The effect of the test compound on gastric emptying was determined in guinea-pigs by following the progress of polystyrene-coated barium sulphate spheres (1 mm diameter) through the gut. The experimental method was based on that described by B. Costall et. al., Eur. J. Pharmacol 91, 197-205, 1983 and B. Cox et. al., Br. J. Pharmacol. 70, 104, 1980.
The spheres (approximatley 30 in number) were administered orally in 0.2 ml carboxymethylcellulose with 0.05 ml glycerine. At the same time, the test compound was administered intraperitoneally at doses of 0.001, 0.01 and 0.1 mg/kg. The control animals received saline, administered intraperitoneally, in place of the test compound. Passage of the spheres through the gut was monitored at 30-60 minute intervals over a period of 2 hours by X-ray location. The number of spheres leaving the stomach was recorded and expressed as a percentage of the total.

ferrets [1] = assay: Cisplatin-induced emesis in ferrets, test compound i.p.; conditions: ferret, cisplatin 9 mg/kg i.p. + test compound 1 mg/kg i.p. 30 minutes before and 1 hour after cisplatin
Description: Thus cisplatin was administered intraperitoneally to a group of 4 male ferrets at a dose of 9 mg/kg, and the time to onset of emesis and the number of emetic episodes were recorded. In a second group of four male ferrets the test compound was administered at a dose of 1 mg/kg i.p. 30 minutes before and 1 hour after intraperitoneal administration of cisplatin.

ferrets [2] = assay: Cisplatin-induced emesis in ferrets, test compound i.v.; conditions: ferret
Description: Both the test compound and cisplatin were prepared and administered in normal saline. The dose of test compound was calculated as the free base.
Emesis was induced in groups of 6 male ferrets weighing between 1.5-2 kg, by intravenous administration of cisplatin at a dose of 10 mg/kg. The onset of emesis occurred between 38 and 75 minutes after injection and over a period of 2 hours the number of vomits/retches (episodes) was in the range 30-62 (average 42±5 vomits/retches per 2 h). Behavioural changes characteristic of emesis were also noted.
The test compound was administered to groups of 6 male ferrets (1.5-2 kg) by intravenous administration at doses of 0.01, 0.1 and 1 mg/kg, immediately prior to administration of cisplatin as described above.

[3] = cisplatin 10 mg/kg i.v. + test compound 0.01 mg/kg i.v.

Structure (SMILES): Cc1nccn1CC1CCc2c(c3ccccc3n2C)C1=O.Cl.O.O (stereo not drawn) [test compound, 1,2,3,9-tetrahydro-9-methyl-3-[(2-methyl-1H-imidazol-1-yl)methyl]-4H-carbazol-4-one hydrochloride dihydrate]
- Mean % Increase in gastric emptying (± s.e.) (guinea-pigs; 0.001 mg/kg i.p., 1 hour): 21 ± 8.7%
- Mean % Increase in gastric emptying (± s.e.) (guinea-pigs; 0.001 mg/kg i.p., 2 hours): 57 ± 10.5%
- Mean % Increase in gastric emptying (± s.e.) (guinea-pigs; 0.01 mg/kg i.p., 1 hour): 33 ± 3.6%
- Mean % Increase in gastric emptying (± s.e.) (guinea-pigs; 0.01 mg/kg i.p., 2 hours): 76.5 ± 11.2%
- Mean % Increase in gastric emptying (± s.e.) (guinea-pigs; 0.1 mg/kg i.p., 1 hour): 47 ± 7.6%
- Mean % Increase in gastric emptying (± s.e.) (guinea-pigs; 0.1 mg/kg i.p., 2 hours): 68 ± 5.0%
- Emetic response (onset of emesis, emetic episodes, retches) (ferrets [1]): emetic response completely
- Duration of emesis (ferrets [2]; [3]): 1 h
- Intensity of emesis (ferrets [2]; [3]): 17 ± 2.9 episodes 2 h
- Onset of emesis (ferrets [2]; [3]): 89 to 109 min
- Emesis and behavioural changes (ferrets [2]; cisplatin 10 mg/kg i.v. + test compound 0.1 mg/kg i.v.): Emesis and behavioural changes were completely
- Emesis and behavioural changes (ferrets [2]; cisplatin 10 mg/kg i.v. + test compound 1 mg/kg i.v.): Emesis and behavioural changes were completely
